Measurements as given in PubChem BioAssay AID192 (DTP/NCI, 2004).
“And” between values parts separate entries of the source, which are not always exact repeats. Identical values can stand only once. Toxic doses and inconclusive results are not listed.

System: BDF1 mice, B16 melanoma ip, median survival T/C
Experiment: NCI In Vivo Anticancer Drug Screen. Data for tumor model B16 Melanoma (intraperitoneal) in B6D2F1 (BDF1) mice
Conditions: endpoint: median survival time, higher = longer survival
In short: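 Compounds were tested in mice carrying transplantable tumors. Survival or tumor size was recorded, and each value is the treated-group measurement (T) divided by that of the vehicle-treated control group (C).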

[1] = dose: 12.5 mg/kg/injection, schedule: Q01DX009 (ip), vehicle: Klucel (hydroxypropylcellulose) (HPC)
[2] = dose: 25.0 mg/kg/injection, schedule: Q01DX009 (ip), vehicle: Klucel (hydroxypropylcellulose) (HPC)
[3] = dose: 50.0 mg/kg/injection, schedule: Q01DX009 (ip), vehicle: Klucel (hydroxypropylcellulose) (HPC)
[4] = dose: 50.0 mg/kg/injection, schedule: Q01DX009 (ip), vehicle: saline with Tween-80
[5] = dose: 100.0 mg/kg/injection, schedule: Q01DX009 (ip), vehicle: Klucel (hydroxypropylcellulose) (HPC)
[6] = dose: 100.0 mg/kg/injection, schedule: Q01DX009 (ip), vehicle: saline with Tween-80
[7] = dose: 100.0 mg/kg/injection, schedule: Q04DX003 (ip), vehicle: saline with Tween-80
[8] = dose: 400.0 mg/kg/injection, schedule: Q04DX003 (ip), vehicle: saline with Tween-80
[9] = dose: 6.25 mg/kg/injection, schedule: Q01DX009 (ip), vehicle: saline
[10] = dose: 0.05 mg/kg/injection, schedule: Q01DX009 (ip), vehicle: saline with Tween-80
[11] = dose: 0.1 mg/kg/injection, schedule: Q01DX009 (ip), vehicle: saline with Tween-80
[12] = dose: 0.2 mg/kg/injection, schedule: Q01DX009 (ip), vehicle: saline with Tween-80
[13] = dose: 400.0 mg/kg/injection, schedule: Q04DX003 (ip), vehicle: Klucel (hydroxypropylcellulose) (HPC)
[14] = dose: 12.5 mg/kg/injection, schedule: Q01DX009 (ip), vehicle: saline with Tween-80
[15] = dose: 25.0 mg/kg/injection, schedule: Q01DX009 (ip), vehicle: saline with Tween-80
[16] = dose: 50.0 mg/kg/injection, schedule: Q01DX009 (ip), vehicle: saline
[17] = dose: 25.0 mg/kg/injection, schedule: Q01DX009 (ip), vehicle: saline
[18] = dose: 100.0 mg/kg/injection, schedule: Q01DX009 (ip), vehicle: saline
[19] = dose: 12.5 mg/kg/injection, schedule: Q01DX009 (ip), vehicle: saline
[20] = dose: 12.5 mg/kg/injection, schedule: Q01DX009 (ip), vehicle: water
[21] = dose: 200.0 mg/kg/injection, schedule: Q01DX009 (ip), vehicle: Klucel (hydroxypropylcellulose) (HPC)
[22] = dose: 400.0 mg/kg/injection, schedule: Q01DX009 (ip), vehicle: Klucel (hydroxypropylcellulose) (HPC)

BrCc1ccc2c3c(ccc(CBr)c13)CC2
T/C [1]: 103 % of control
T/C [2]: 98 % of control
T/C [3]: 96 % of control
T/C [4]: 112 % of control
T/C [5]: 100 % of control
T/C [6]: 122 % of control
T/C [7]: 107 % of control
T/C (dose: 200.0 mg/kg/injection, schedule: Q01DX009 (ip), vehicle: saline with Tween-80): 95 % of control
T/C (dose: 200.0 mg/kg/injection, schedule: Q04DX003 (ip), vehicle: saline with Tween-80): 112 % of control
T/C [8]: 105 % of control

O=C(NCCCN1CCOCC1)C(Oc1ccccc1)Oc1ccccc1
T/C (dose: 0.09 mg/kg/injection, schedule: Q01DX009 (ip), vehicle: Klucel (hydroxypropylcellulose) (HPC)): 88 % of control
T/C (dose: 0.19 mg/kg/injection, schedule: Q01DX009 (ip), vehicle: Klucel (hydroxypropylcellulose) (HPC)): 92 % of control
T/C (dose: 0.78 mg/kg/injection, schedule: Q01DX009 (ip), vehicle: Klucel (hydroxypropylcellulose) (HPC)): 87 % of control
T/C (dose: 1.56 mg/kg/injection, schedule: Q01DX009 (ip), vehicle: Klucel (hydroxypropylcellulose) (HPC)): 88 % of control
T/C [1]: 92 % of control
T/C [2]: 86 % of control and 103 % of control
T/C [3]: 90 % of control

Nc1ncnc2c1ncn2C1OC(CO)CC1O (configuration not stated)
T/C (dose: 18.75 mg/kg/injection, schedule: Q01DX009 (ip), vehicle: Klucel (hydroxypropylcellulose) (HPC)): 113 % of control
T/C (dose: 37.5 mg/kg/injection, schedule: Q01DX009 (ip), vehicle: Klucel (hydroxypropylcellulose) (HPC)): 112 % of control and 119 % of control
T/C (dose: 75.0 mg/kg/injection, schedule: Q01DX009 (ip), vehicle: Klucel (hydroxypropylcellulose) (HPC)): 104 % of control and 115 % of control

Cc1ccc2c(ccc(/C=C\c3cc(C)c4cccnc4c3O)[n+]2C)c1
T/C (dose: 1.56 mg/kg/injection, schedule: Q01DX009 (ip), vehicle: saline): 95 % of control
T/C (dose: 3.13 mg/kg/injection, schedule: Q01DX009 (ip), vehicle: saline): 95 % of control
T/C [9]: 91 % of control

CC(=O)CC(c1ccccc1)c1c(O)c2ccccc2oc1=O (configuration not stated)
T/C [10]: 107 % of control
T/C [11]: 98 % of control
T/C [12]: 104 % of control
T/C (dose: 0.8 mg/kg/injection, schedule: Q01DX009 (ip), vehicle: saline with Tween-80): 90 % of control

Cc1ccc(C(=O)/C(=C/c2ccccc2)c2ccccc2)cc1
T/C (dose: 100.0 mg/kg/injection, schedule: Q04DX003 (ip), vehicle: Klucel (hydroxypropylcellulose) (HPC)): 113 % of control
T/C (dose: 200.0 mg/kg/injection, schedule: Q04DX003 (ip), vehicle: Klucel (hydroxypropylcellulose) (HPC)): 113 % of control
T/C [13]: 104 % of control

CO[C@H](/C(C)=C/C=C/C(C)=C/c1coc(C)n1)[C@H](C)[C@H]1C[C@@H](O)[C@@]2(C)O[C@H]2/C=C/[C@@H](C)[C@@H]2C[C@@H](CC(=O)O2)C[C@H]2O[C@@H]2C(=O)O1
T/C (dose: 0.4 mg/kg/injection, schedule: Q01DX009 (ip), vehicle: Klucel (hydroxypropylcellulose) (HPC)): 153 % of control
T/C (dose: 0.5 mg/kg/injection, schedule: Q01DX009 (sc), vehicle: Klucel (hydroxypropylcellulose) (HPC)): 181 % of control

O=C(Nc1ccccc1C(F)(F)F)C(c1ccccc1)c1ccccc1
T/C [14]: 101 % of control
T/C [15]: 98 % of control
T/C [4]: 97 % of control

CCO/C=C1\SC(=S)N(c2cccc(OC)c2)C1=O
T/C [1]: 93 % of control and 98 % of control
T/C [2]: 98 % of control and 107 % of control
T/C (dose: 35.0 mg/kg/injection, schedule: Q01DX009 (ip), vehicle: saline): 98 % of control
T/C [3]: 98 % of control
T/C [16]: 100 % of control
T/C (dose: 75.0 mg/kg/injection, schedule: Q01DX009 (ip), vehicle: saline): 91 % of control
T/C [5]: 100 % of control and 102 % of control
T/C (dose: 265.0 mg/kg/injection, schedule: Q04DX003 (ip), vehicle: Klucel (hydroxypropylcellulose) (HPC)): 101 % of control
T/C [13]: 97 % of control

NC(=O)C(Br)CBr (configuration not stated)
T/C [2]: 92 % of control
T/C [15]: 111 % of control
T/C [3]: 105 % of control
T/C [4]: 108 % of control
T/C [5]: 107 % of control
T/C [6]: 106 % of control

CC1=CC(=O)C(CO)=CC1=O
T/C [10]: 94 % of control
T/C [11]: 103 % of control
T/C [12]: 93 % of control
T/C (dose: 0.38 mg/kg/injection, schedule: Q01DX009 (ip), vehicle: saline with Tween-80): 93 % of control
T/C (dose: 0.4 mg/kg/injection, schedule: Q01DX009 (ip), vehicle: saline with Tween-80): 94 % of control

S=C=NCC(Br)CBr (configuration not stated)
T/C (dose: 6.25 mg/kg/injection, schedule: Q01DX009 (ip), vehicle: Klucel (hydroxypropylcellulose) (HPC)): 86 % of control
T/C [1]: 86 % of control

COc1ccc2c3c1OC1C4(CCC5C(C2)N(CC2CC2)CCC351)OCCO4 (configuration not stated)
T/C [17]: 97 % of control
T/C [16]: 97 % of control
T/C [18]: 90 % of control

CNc1nc(N(C)C)nc(N(C)C)n1
T/C [9]: 115 % of control
T/C (dose: 6.25 mg/kg/injection, schedule: Q01DX009 (ip), vehicle: water): 96 % of control and 100 % of control
T/C [19]: 111 % of control
T/C [20]: 95 % of control and 102 % of control
T/C [17]: 111 % of control
T/C (dose: 25.0 mg/kg/injection, schedule: Q01DX009 (ip), vehicle: water): 94 % of control
T/C [16]: 116 % of control
T/C (dose: 50.0 mg/kg/injection, schedule: Q01DX009 (ip), vehicle: water): 100 % of control and 118 % of control
T/C [18]: 116 % of control
T/C (dose: 100.0 mg/kg/injection, schedule: Q01DX009 (ip), vehicle: water): 100 % of control and 105 % of control

O=C1C(=O)c2ccccc2C(O)=C1CCCc1ccc(C2CCCCCC2)cc1
T/C [15]: 123 % of control
T/C [4]: 114 % of control

CC(C)C1=CC2=CCC3C(C)(C(N)=O)CCCC3(C)C2CC1CC#N (configuration not stated)
T/C [7]: 102 % of control
T/C [8]: 88 % of control

O=C(NC(CSCc1ccccc1)C(=O)O)OCc1ccccc1 (configuration not stated)
T/C [14]: 107 % of control
T/C [15]: 107 % of control
T/C [4]: 98 % of control and 103 % of control
T/C [6]: 87 % of control

COc1ccc(CCNC(=S)NCCc2ccc(OC)c(OC)c2)cc1OC
T/C [5]: 86 % of control
T/C [21]: 92 % of control
T/C [22]: 115 % of control

CN(C)CC/C=C1\c2ccccc2C(C)(C)c2ccc(Cl)cc21
T/C [15]: 118 % of control
T/C [4]: 92 % of control

O=C(Nc1ccc(C(=O)O)cc1)Nc1nccs1
T/C (dose: 25.0 mg/kg/injection, schedule: Q01DX009 (ip), vehicle: distilled water + Tween-80): 113 % of control
T/C (dose: 100.0 mg/kg/injection, schedule: Q01DX009 (ip), vehicle: distilled water + Tween-80): 113 % of control
T/C (dose: 200.0 mg/kg/injection, schedule: Q01DX009 (ip), vehicle: distilled water + Tween-80): 113 % of control

CN(C)c1ccc(C=Nc2ccc3c(c2)Cc2ccccc2-3)cc1
T/C [5]: 106 % of control
T/C [21]: 93 % of control
T/C [22]: 90 % of control

CCCCCNC(=O)Nc1cccc(Cl)c1C
T/C (dose: 6.25 mg/kg/injection, schedule: Q01DX009 (ip), vehicle: saline with Tween-80): 91 % of control
T/C [14]: 104 % of control
T/C [15]: 100 % of control
T/C [4]: 89 % of control and 103 % of control

ClCCCN1CCCCC1CCl (configuration not stated)
T/C (dose: 3.12 mg/kg/injection, schedule: Q01DX009 (ip), vehicle: saline): 111 % of control
T/C (dose: 3.12 mg/kg/injection, schedule: Q04DX003 (ip), vehicle: saline): 105 % of control
T/C (dose: 6.25 mg/kg/injection, schedule: Q04DX003 (ip), vehicle: saline): 116 % of control
T/C (dose: 8.33 mg/kg/injection, schedule: Q01DX009 (ip), vehicle: water): 155 % of control and 159 % of control
T/C [19]: 176 % of control
T/C [20]: 185 % of control and 192 % of control

CC(=O)NC1c2cc(Cl)ccc2-c2c(Cl)cc(Cl)cc21 (configuration not stated)
T/C [6]: 100 % of control
T/C (dose: 400.0 mg/kg/injection, schedule: Q01DX009 (ip), vehicle: saline with Tween-80): 95 % of control
T/C (dose: 800.0 mg/kg/injection, schedule: Q01DX009 (ip), vehicle: saline with Tween-80): 86 % of control
